Square brackets hold non-standard residues; d marks the D form. Peptide text beside a SMILES is read from it. pGlu = O=C1CC[C@@H](C(=O)O)N1
Columns and labels:
[1] = Antagonist activity at GP2b/3a receptor in New Zealand rabbit platelet-rich plasma assessed as inhibition of ADP-induced platelet aggregation preincubated for 1 min followed by addition of ADP by aggregometer
[2] = Antagonist activity at GP2b/3a receptor in New Zealand rabbit platelet-rich plasma assessed as inhibition of collagen-induced platelet aggregation preincubated for 1 min followed by addition of ADP by aggregometer
[3] = Antagonist activity at GP2b/3a receptor in New Zealand rabbit platelet-rich plasma assessed as inhibition of U46619-induced platelet aggregation preincubated for 1 min followed by addition of ADP by aggregometer
[4] = Antagonist activity at GP2b/3a receptor in New Zealand rabbit platelet-rich plasma assessed as inhibition of thrombin-induced platelet aggregation preincubated for 1 min followed by addition of ADP by aggregometer

| Structure (SMILES) | IC50 [1] [µM] | other results |
| --- | --- | --- |
| O=C(O)[C@H](Cc1c[nH]c2ccc(OCCCCC3CCNCC3)cc12)NS(=O)(=O)c1ccc(F)cc1 | 93.1 | – |
| COc1ccc(C(=O)N[C@@H](Cc2c[nH]c3ccc(OCCCCC4CCNCC4)cc23)C(=O)O)cc1 | > 500 | – |
| O=C(N[C@@H](Cc1c[nH]c2ccc(OCCCCC3CCNCC3)cc12)C(=O)O)c1cc(Cl)cc(Cl)c1 | 86.5 | – |
| O=C(N[C@@H](Cc1c[nH]c2ccc(OCCCCC3CCNCC3)cc12)C(=O)O)c1ccc(F)cc1 | 94.4 | – |
| O=C(O)[C@H](Cc1c[nH]c2ccc(OCCCCC3CCNCC3)cc12)NS(=O)(=O)c1ccc(Br)cc1 | 24.8 | IC50 [2]: 683 µM; IC50 [3]: 590 µM; IC50 [4]: 124 µM |
| O=C(N[C@@H](Cc1c[nH]c2ccc(OCCCCC3CCNCC3)cc12)C(=O)O)c1ccccc1 | > 500 | – |
| O=C(N[C@@H](Cc1c[nH]c2ccc(OCCCCC3CCNCC3)cc12)C(=O)O)c1cccc(F)c1 | 96.1 | – |
| O=C(N[C@@H](Cc1c[nH]c2ccc(OCCCCC3CCNCC3)cc12)C(=O)O)c1ccc([N+](=O)[O-])cc1 | 488 | – |
| O=C(O)[C@H](Cc1c[nH]c2ccc(OCCCCC3CCNCC3)cc12)NS(=O)(=O)c1ccccc1 | 95.7 | – |
| Cc1ccc(S(=O)(=O)N[C@@H](Cc2c[nH]c3ccc(OCCCCC4CCNCC4)cc23)C(=O)O)cc1 | 108 | – |
| COc1ccc(S(=O)(=O)N[C@@H](Cc2c[nH]c3ccc(OCCCCC4CCNCC4)cc23)C(=O)O)cc1 | > 500 | – |
| O=C(O)[C@H](Cc1c[nH]c2ccc(OCCCCC3CCNCC3)cc12)NS(=O)(=O)c1ccc([N+](=O)[O-])cc1 | 425 | – |
| NC(=O)C[C@H](NC(=O)[C@@H]1CCC(=O)N1)C(=O)N[C@@H](Cc1c[nH]c2ccccc12)C(=O)O ([pGlu]-Asn-Trp-OH) | > 500 | – |

Reference: BindingDB's records for doi:10.1016/j.ejmech.2015.07.016 (China Pharmaceutical University, 2015)
